# Reference: patent US9434610B2, “HPMA—docetaxel conjugates and uses therefore” (REXAHN PHARMACEUTICALS, INC., priority 2008, dated 2016)
# Columns and labels:
# PANC-1 (pancreas) = assay: In vitro cell proliferation (SRB) assay, PANC-1; assay type: cell-based; conditions: Homo sapiens, 96 hours, drug equivalent
# Protocol: (§1) Cancer cell lines to determine the effect of HPMA-drug conjugates were obtained from the following sources: Human MDA-MB-231 (breast), HCT116 (colon) and PANC-1 (pancreas), from the American Type Culture Collection (ATCC) (Manassas, Va.). UMRC2 (kidney) from United States National Cancer Institute (Bethesda, Md.). Cells were maintained in Dulbecco's modified Eagle's medium (“DMEM”, Invitrogen) supplemented with 10% FBS, P/S and 10 mM HEPES. All cells were incubated at 37° C. under humidified 5% CO2.
# (§2) The growth inhibition assay of HPMA-drug conjugates against human cancer cell lines was performed using the Sulforhodamine B (“SRB”) method (Skehan et al., J. National Cancer Institute, 82: 1107-1112 (1990)). […] After 5 minutes agitation in 10 mM Tris solution, the absorbance of each well was measured at 530 nm using Benchmark Plus Microplate reader (Bio-Rad Laboratories, Hercules, Calif.). The absorbance value provides a direct measure of the number of live cells post-treatment with HPMA copolymer-drug conjugates.
# (§3) To translate the OD530 values into the number of live cells in each well, the OD530 values were compared to those on standard OD530-versus-cell number curves generated for each cell line. The percent survival was calculated using the formula: % Survival=live cell number[test]/live cell number[control]×100
# (§4) The IC50 values were calculated by non-linear regression analysis.
# UMRC2 (kidney) = assay: In vitro cell proliferation (SRB) assay, UMRC2; assay type: cell-based; conditions: Homo sapiens, 96 hours, drug equivalent
# Protocol: as §1, §2, §3, §4
# HCT116 (colon) = assay: In vitro cell proliferation (SRB) assay, HCT116; assay type: cell-based; conditions: Homo sapiens, HCT-116, 96 hours, drug equivalent
# Protocol: as §1, §2, §3, §4
# MDA-MB-231 (breast) = assay: In vitro cell proliferation (SRB) assay, MDA-MB-231; assay type: cell-based; conditions: Homo sapiens, 96 hours, drug equivalent
# Protocol: as §1, §2, §3, §4
# reduced folate carrier = target: T1, reduced folate carrier (Homo sapiens, UniProt P41440); conditions: low affinity reduced folate carrier, cellular uptake; cited from earlier work
# T1 sequence (P41440 1-591): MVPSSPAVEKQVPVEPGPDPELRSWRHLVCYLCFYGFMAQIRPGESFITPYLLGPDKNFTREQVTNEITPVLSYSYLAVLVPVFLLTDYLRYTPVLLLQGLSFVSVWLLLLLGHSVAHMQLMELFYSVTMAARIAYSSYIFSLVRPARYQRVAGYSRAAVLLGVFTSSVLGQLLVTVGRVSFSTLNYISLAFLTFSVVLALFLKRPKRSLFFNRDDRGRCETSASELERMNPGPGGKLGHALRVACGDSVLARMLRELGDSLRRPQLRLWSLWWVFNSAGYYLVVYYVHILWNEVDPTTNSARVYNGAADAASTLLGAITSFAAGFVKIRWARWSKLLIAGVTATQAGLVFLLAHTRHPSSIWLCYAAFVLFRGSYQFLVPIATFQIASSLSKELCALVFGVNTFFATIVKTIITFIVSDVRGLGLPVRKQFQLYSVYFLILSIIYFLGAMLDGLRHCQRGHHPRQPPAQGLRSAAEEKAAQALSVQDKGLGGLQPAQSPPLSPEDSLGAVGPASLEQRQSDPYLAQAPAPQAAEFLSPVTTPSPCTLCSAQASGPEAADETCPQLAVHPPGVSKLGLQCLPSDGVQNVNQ
# [1] = target: glycosylphosphatidylinositol-linked folate receptor (FR); conditions: high affinity folate receptor; cited from earlier work
# mucin-1 = mucin-1 (Homo sapiens, UniProt P15941); conditions: specific ligand of mucin-1; cited from earlier work
# Chain of mucin-1 (P15941 24-1255): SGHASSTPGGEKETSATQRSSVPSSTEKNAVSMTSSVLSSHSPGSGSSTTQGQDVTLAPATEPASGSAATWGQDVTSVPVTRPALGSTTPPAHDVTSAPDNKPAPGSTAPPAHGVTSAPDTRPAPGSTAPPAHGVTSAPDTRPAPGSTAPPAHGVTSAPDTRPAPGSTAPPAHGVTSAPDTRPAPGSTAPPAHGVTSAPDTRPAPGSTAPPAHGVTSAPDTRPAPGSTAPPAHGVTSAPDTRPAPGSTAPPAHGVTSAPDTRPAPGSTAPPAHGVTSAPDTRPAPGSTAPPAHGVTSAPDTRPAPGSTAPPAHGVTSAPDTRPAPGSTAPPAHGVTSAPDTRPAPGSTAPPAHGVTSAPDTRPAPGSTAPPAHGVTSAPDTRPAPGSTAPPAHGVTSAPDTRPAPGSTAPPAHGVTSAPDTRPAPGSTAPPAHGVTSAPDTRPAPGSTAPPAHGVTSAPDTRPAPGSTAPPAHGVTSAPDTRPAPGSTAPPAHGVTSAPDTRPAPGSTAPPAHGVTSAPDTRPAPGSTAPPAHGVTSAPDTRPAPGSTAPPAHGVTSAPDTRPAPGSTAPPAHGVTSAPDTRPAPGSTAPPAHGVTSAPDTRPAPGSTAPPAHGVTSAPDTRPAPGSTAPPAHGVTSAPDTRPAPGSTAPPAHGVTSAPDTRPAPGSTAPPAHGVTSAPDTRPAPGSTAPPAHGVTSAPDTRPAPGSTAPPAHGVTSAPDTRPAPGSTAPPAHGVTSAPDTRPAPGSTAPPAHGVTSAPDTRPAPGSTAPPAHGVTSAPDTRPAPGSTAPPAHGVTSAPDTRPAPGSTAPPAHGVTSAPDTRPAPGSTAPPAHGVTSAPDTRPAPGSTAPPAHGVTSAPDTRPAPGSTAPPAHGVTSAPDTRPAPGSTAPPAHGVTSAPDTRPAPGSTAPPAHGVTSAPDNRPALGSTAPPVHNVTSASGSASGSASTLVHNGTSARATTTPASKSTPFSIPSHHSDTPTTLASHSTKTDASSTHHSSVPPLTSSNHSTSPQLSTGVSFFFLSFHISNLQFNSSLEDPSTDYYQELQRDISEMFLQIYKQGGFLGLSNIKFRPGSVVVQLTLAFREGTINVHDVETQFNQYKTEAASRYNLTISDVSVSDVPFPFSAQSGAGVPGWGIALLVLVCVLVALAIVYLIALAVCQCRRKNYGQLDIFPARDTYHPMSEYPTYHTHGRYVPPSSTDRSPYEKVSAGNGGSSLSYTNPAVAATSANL
molecule,measurement,setting,value
Nc1ccn([C@@H]2O[C@H](CO)[C@@H](O)C2(F)F)c(=O)n1 [Gemcitabine],IC50,PANC-1 (pancreas),0.59 µM
same,IC50,UMRC2 (kidney),0.29 µM
same,IC50,HCT116 (colon),0.056 µM
same,IC50,MDA-MB-231 (breast),0.22 µM
"Nc1nc2ncc(CNc3ccc(C(=O)N[C@@H](CCC(=O)O)C(=O)O)cc3)nc2c(=O)[nH]1 [folates, Folic acid]",Km,reduced folate carrier,~1 µM
same,Kd,[1],~0.1 nM
CC(=O)O[C@@]12CO[C@@H]1C[C@H](O)[C@@]1(C)C(=O)[C@H](O)C3=C(C)[C@@H](OC(=O)[C@H](O)[C@@H](NC(=O)OC(C)(C)C)c4ccccc4)C[C@@](O)([C@@H](OC(=O)c4ccccc4)[C@H]21)C3(C)C [Docetaxel],IC50,PANC-1 (pancreas),0.0012 µM
same,IC50,UMRC2 (kidney),0.026 µM
same,IC50,HCT116 (colon),0.00055 µM
same,IC50,MDA-MB-231 (breast),0.00077 µM
"synthetic peptide YCAREPPTRTFAYWG (SEQ ID NO: 9), specific ligand of mucin-1 [EPPT1]",Kd,mucin-1,20000 nM
